The test deals with modified version of the GPR119 receptor (94% identity to human receptor) stably expressed in HEK-293 cells. The test is described as follows: cAMP Production Assay (LANCE cAMP kit, TR-FRET). It is filed as cell-based. The conditions noted are these: for cAMP production in HEK-293 cells: HEK-293 cells expressing modified GPR119, test compounds 0.2 nM to 10 μM, one-hour incubation at ambient temperature; for Fold over baseline: increase in cAMP relative to basal levels, 1.5-fold or greater = agonist activity. The procedure:
The assay utilized HEK-293 cells that stably express a modified version of the GPR119 receptor (94% identity to human receptor), under the control of a CMV promoter containing a tet-on element for tetracycline-inducible expression. GPR119 agonist-induced cyclic AMP (cAMP) production was measured in this cell line using the LANCE cAMP kit (Perkin Elmer, Waltham, Mass.). To generate a working stock of cells for the assay, cells were treated overnight with 1 μg/mL doxycycline at 37° C. in the presence of 5% CO2 to induce receptor expression. Cells were then harvested by enzymatic dissociation with 0.05% trypsin, resuspended in freezing medium (DMEM growth medium with 10% each of fetal bovine serum and DMSO), aliquoted and frozen at −80° C. On the day of the assay, frozen cells were thawed, washed 1× in PBS and resuspended in Hank's buffered salt solution (HBSS) containing 5 mM HEPES, 0.1% BSA and Alexa Fluor 647-conjugated anti-cAMP antibody (diluted 1:100). The cell suspension was then transferred to a Proxiplate Plus white 384-well assay plate (Perkin-Elmer) at 2000 cells/well. Test compounds at final concentrations ranging from 0.2 nM to 10 μM were added to the assay plate, followed by a one-hour incubation at ambient temperature (volume=10 μL/well). DMSO concentration was held constant at 0.5%. After incubation with test compounds, 10 μL of a detergent buffer containing a biotinylated cAMP/Europium-conjugated streptavidin complex (Europium-labeled cAMP tracer) were added to each well on the assay plate, followed by a 2-hour incubation at ambient temperature. During this incubation cAMP released from lysed cells competes with the Europium-labeled cAMP tracer for binding to the Alexa Fluor 647-conjugated antibody. […] Cellular cAMP levels were then determined by interpolation of raw signal data using a cAMP standard curve. Compounds were determined to have agonist activity if they stimulated a 1.5-fold or greater increase in cAMP relative to basal levels.

Regarding `CS(=O)(=O)c1ccc(N[C@H]2CCN(C3CCN(c4noc(C5CCCC5)n4)CC3)C2=O)c(F)c1` [Example 43, (S)-1-(1-(5-cyclopentyl-1,2,4-oxadiazol-3-yl)piperidin-4-yl)-3-(2-fluoro-4-(methylsulfonyl)-phenylamino)-pyrrolidin-2-one], the “cAMP production in HEK-293 cells” value was 14.7 nmol and the Fold over baseline came out at 3.6.

Consider `CS(=O)(=O)c1ccc(N[C@H]2CCN(C3CCN(c4noc(-c5ccccc5)n4)CC3)C2=O)c(F)c1` [Example 44, (S)-3-(2-fluoro-4-(methylsulfonyl)-phenylamino)-1-(1-(5-phenyl-1,2,4-oxadiazol-3-yl)piperidin-4-yl)pyrrolidin-2-one], for which the “cAMP production in HEK-293 cells” value came out at 19.5 nmol and the Fold over baseline was 6.8.

Take `CS(=O)(=O)c1ccc(N[C@H]2CCN(C3CCN(c4noc(C5CC5)n4)CC3)C2=O)c(F)c1` [Example 45, (S)-1-(1-(5-cyclopropyl-1,2,4-oxadiazol-3-yl)piperidin-4-yl)-3-(2-fluoro-4-(methylsulfonyl)-phenylamino)-pyrrolidin-2-one]: the “cAMP production in HEK-293 cells” value stood at 13.3 nmol and the Fold over baseline was 5.3.

For `CS(=O)(=O)c1ccc(N[C@H]2CCN(C3CCN(c4noc(C5(C(F)(F)F)CC5)n4)CC3)C2=O)c(F)c1` [Example 46, (S)-3-(2-fluoro-4-(methylsulfonyl)-phenylamino)-1-(1-(5-(1-(trifluoromethyl)-cyclopropyl)-1,2,4-oxadiazol-3-yl)piperidin-4-yl)pyrrolidin-2-one], the “cAMP production in HEK-293 cells” value worked out at 8.2 nmol and the Fold over baseline is 2.7.

For `CCC(F)(F)c1nc(N2CCC(N3CC[C@H](Nc4ccc(S(C)(=O)=O)cc4F)C3=O)CC2)no1` [Example 47, (S)-1-(1-(5-(1,1-difluoropropyl)-1,2,4-oxadiazol-3-yl)piperidin-4-yl)-3-(2-fluoro-4-(methylsulfonyl)-phenylamino)pyrrolidin-2-one], the “cAMP production in HEK-293 cells” value worked out at 17.2 nmol and the Fold over baseline was 2.5.

In the case of `CC(F)(F)c1nc(N2CCC(N3CCC[C@H](Nc4cc(F)c(S(C)(=O)=O)cc4F)C3=O)CC2)no1` [Example 48, (S)-3-(2,5-difluoro-4-(methylsulfonyl)phenylamino)-1′-(5-(1,1-difluoroethyl)-1,2,4-oxadiazol-3-yl)-1,4′-bipiperidin-2-one], the “cAMP production in HEK-293 cells” value is 8.4 nmol and the Fold over baseline is reported as 2.3.

On to `CC(F)(F)c1nc(N2CCC(N3CC[C@H](Nc4ccc(S(C)(=O)=O)cc4F)C3=O)CC2)no1` [Example 49, (S)-1-(1-(5-(1,1-difluoroethyl)-1,2,4-oxadiazol-3-yl)piperidin-4-yl)-3-(2-fluoro-4-(methylsulfonyl)phenylamino)pyrrolidin-2-one], for which the “cAMP production in HEK-293 cells” value worked out at 20.8 nmol and the Fold over baseline amounted to 2.7.

Consider `CC(F)(F)c1nc(N2CCC(N3CCC[C@H](Nc4c(F)cc(S(C)(=O)=O)cc4F)C3=O)CC2)no1` [Example 50, (S)-3-(2,6-difluoro-4-(methylsulfonyl)phenylamino)-1′-(5-(1,1-difluoroethyl)-1,2,4-oxadiazol-3-yl)-1,4′-bipiperidin-2-one], for which the “cAMP production in HEK-293 cells” value came out at 3.9 nmol and the Fold over baseline worked out at 1.7.

As to `CS(=O)(=O)c1ccc(N[C@H]2CCN(C3CCN(c4noc(N5CCCC5)n4)CC3)C2=O)c(F)c1` [Example 51], the “cAMP production in HEK-293 cells” value is 16.3 nmol and the Fold over baseline was 2.9.

Consider `CC(F)(F)c1nc(N2CCC(N3CC[C@H](Oc4cc(F)c(S(C)(=O)=O)cc4F)C3=O)CC2)no1` [Example 52, (S)-3-(2,5-difluoro-4-(methylsulfonyl)phenoxy)-1-(1-(5-(1,1-difluoroethyl)-1,2,4-oxadiazol-3-yl)piperidin-4-yl)pyrrolidin-2-one], for which the “cAMP production in HEK-293 cells” value was determined as 15.5 nmol and the Fold over baseline is 5.8.

With `CS(=O)(=O)c1cc(F)c(N[C@H]2CCCCN(C3CCN(c4noc(C(F)(F)F)n4)CC3)C2=O)cc1F` [Example 53, (S)-3-(2,5-difluoro-4-(methylsulfonyl)phenylamino)-1-(1-(5-(trifluoromethyl)-1,2,4-oxadiazol-3-yl)piperidin-4-yl)azepan-2-one], the “cAMP production in HEK-293 cells” value was 11.8 nmol and the Fold over baseline worked out at 4.7.

On to `CS(=O)(=O)c1cc(F)c(O[C@H]2CCCN(C3CCN(c4noc(C(F)(F)F)n4)CC3)C2=O)cc1F` [Example 54, (S)-3-(2,5-difluoro-4-(methylsulfonyl)phenoxy)-1′-(5-(trifluoromethyl)-1,2,4-oxadiazol-3-yl)-[1,4′-bipiperidin]-2-one], for which the “cAMP production in HEK-293 cells” value was 19.9 nmol and the Fold over baseline is 4.9.

With `CC(F)(F)c1nc(N2CCC(N3CCC[C@H](Oc4cc(F)c(S(C)(=O)=O)cc4F)C3=O)CC2)no1` [Example 55, (S)-3-(2,5-difluoro-4-(methylsulfonyl)phenoxy)-1′-(5-(1,1-difluoroethyl)-1,2,4-oxadiazol-3-yl)-[1,4′-bipiperidin]-2-one], the “cAMP production in HEK-293 cells” value was determined as 17.3 nmol and the Fold over baseline stood at 3.7.

For the molecule `CS(=O)(=O)c1ccc(O[C@H]2CCN(C3CCN(c4noc(C(F)(F)F)n4)CC3)C2=O)cn1` [Example 56, (S)-3-((6-(methylsulfonyl)pyridin-3-yl)oxy)-1-(1-(5-(trifluoromethyl)-1,2,4-oxadiazol-3-yl)piperidin-4-yl)pyrrolidin-2-one], the “cAMP production in HEK-293 cells” value is 21.1 nmol and the Fold over baseline was 3.3.

In the case of `CS(=O)(=O)c1ccc(N[C@H]2CCN(C3CCN(c4noc(C(F)(F)F)n4)CC3)C2=O)cn1` [Example 57, (S)-3-((6-(methylsulfonyl)pyridin-3-yl)amino)-1-(1-(5-(trifluoromethyl)-1,2,4-oxadiazol-3-yl)piperidin-4-yl)pyrrolidin-2-one], the “cAMP production in HEK-293 cells” value is 27.2 nmol and the Fold over baseline amounted to 3.7.

In the case of `CS(=O)(=O)c1ccc(N[C@H]2CCN(C3CCN(c4noc(C(F)F)n4)CC3)C2=O)cn1` [Example 58], the “cAMP production in HEK-293 cells” value was determined as 15.8 nmol and the Fold over baseline was determined as 2.6.

For `CS(=O)(=O)c1cc(F)c(N[C@H]2CCN(C3CCN(c4nc(C(F)(F)F)no4)CC3)C2=O)cc1F` [Example 59, (S)-3-((2,5-difluoro-4-(methylsulfonyl)phenyl)amino)-1-(1-(3-(trifluoromethyl)-1,2,4-oxadiazol-5-yl)piperidin-4-yl)pyrrolidin-2-one], the “cAMP production in HEK-293 cells” value came to 25.7 nmol and the Fold over baseline amounted to 3.9.

For the molecule `CS(=O)(=O)c1cc(F)c(N[C@H]2CCN(C3CCN(c4nc(C(F)(F)F)no4)CC3)C2=O)c(F)c1` [Example 60, (S)-3-((2,6-difluoro-4-(methylsulfonyl)phenyl)amino)-1-(1-(3-(trifluoromethyl)-1,2,4-oxadiazol-5-yl)piperidin-4-yl)pyrrolidin-2-one], the “cAMP production in HEK-293 cells” value stood at 18.1 nmol and the Fold over baseline is reported as 3.8.

With `CC(F)(F)c1noc(N2CCC(N3CCC[C@H](Nc4cc(F)c(S(C)(=O)=O)cc4F)C3=O)CC2)n1` [Example 61, (S)-3-((2,5-difluoro-4-(methylsulfonyl)phenyl)amino)-1′-(3-(1,1-difluoroethyl)-1,2,4-oxadiazol-5-yl)-[1,4′-bipiperidin]-2-one], the “cAMP production in HEK-293 cells” value stood at 13.6 nmol and the Fold over baseline was determined as 2.2.

In the case of `CC(F)(F)c1noc(N2CCC(N3CCC[C@H](Nc4c(F)cc(S(C)(=O)=O)cc4F)C3=O)CC2)n1` [Example 62, (S)-3-((2,6-difluoro-4-(methylsulfonyl)phenyl)amino)-1′-(3-(1,1-difluoroethyl)-1,2,4-oxadiazol-5-yl)-[1,4′-bipiperidin]-2-one], the “cAMP production in HEK-293 cells” value came to 16.2 nmol and the Fold over baseline was 2.6.

With `CC(F)(F)c1noc(N2CCC(N3CC[C@H](Oc4cc(F)c(S(C)(=O)=O)cc4F)C3=O)CC2)n1` [Example 63, (S)-3-(2,5-difluoro-4-(methylsulfonyl)phenoxy)-1-(1-(3-(1,1-difluoroethyl)-1,2,4-oxadiazol-5-yl)piperidin-4-yl)pyrrolidin-2-one], the “cAMP production in HEK-293 cells” value is 21.6 nmol and the Fold over baseline was 3.6.

For `CC(F)(F)c1nc(N2CCC(N3CC[C@H](Nc4cc(F)c(S(C)(=O)=O)cc4F)C3=O)CC2)no1` [Example 64, (S)-3-((2,5-difluoro-4-(methylsulfonyl)phenyl)amino)-1-(1-(5-(1,1-difluoroethyl)-1,2,4-oxadiazol-3-yl)piperidin-4-yl)pyrrolidin-2-one], the “cAMP production in HEK-293 cells” value worked out at 15.8 nmol and the Fold over baseline is 3.3.

The values are drawn from patent US20130184257A1, “PIPERIDINYL-SUBSTITUTED LACTAMS AS GPR119 MODULATORS” (priority 2010, published 2013).
